Reference: patent publication US9540418B2, “Polypeptide specifically binding to rare earth nanoparticles and use thereof” (University of Science and Technology of China, priority 2012, dated 2017)
Ends that are not written are not given here.

What was measured:
[1] = Competitive inhibition of REOB-1 phage binding to Nd2O3 by polypeptides (IC50); conditions: 100 μg Nd2O3, REOB-1 phages at a titer of 108, 2 hr incubation; read-out: IC50 (μM)* of polypeptides competitively inhibiting the binding of REOB-1 phages to Nd2O3 nanoparticles
Experimental: 100 μg Nd2O3 was mixed with the polypeptides, RE-1, AP-1, RE-2, RE-3, RE-4, RE-5, RE-6, RE-7, RE-8, RE-9, RE-10, etc., respectively. To the mixture, REOB-1 phages at a titer of 108 were added. After 2 hr of incubation, the number of REOB-1 phages binding to Nd2O3 was measured. IC50 value indicated the relative activity of various polypeptides competitively inhibiting the binding of REOB-1 phages to Nd2O3 nanoparticles. The polypeptide RE-1 and its analogues had different binding ability to Nd2O3.

[2] = test system: HeLa cells; assay: Effect of RE-1 analogues on cytotoxicity induced by UCN, UCP (MTT, PI staining); assay type: cell-based; conditions: 1 mg/mL, 24 hr
Experimental: (§1) MTT cell vitality assay is performed as follows: The cells to which samples have been added are cultured for 24 hr, and then 0.5 mg/mL MTT solution is added and cultured for 4 hr. The MTT solution in the well is discharged, and then 200 μL DMSO is added, followed by gently shaking the plate on a shaking table for 10 min. Detection is performed using microplate reader (ELX800, purchased from BIO-TEK) at a wavelength of 570 nm.
(§2) PI staining assay is performed as follows: The cells to which samples have been added are cultured for 24 hr, and then to the culture Hoechst 33342 (10 mM, purchased from Sigma, USA, Catalog #: B2261) and PI (Propidium Iodide) (10 mM, purchased from Beyotime Biotechnology, Catalog #: ST511) are added for 10 min of staining. Then, the cells are detected and photographed under a fluorescence microscope (Olympus IX71, purchased from Olympus). The number of the cells counted by this assay was 500.
HeLa cells were inoculated into 96-well cell culturing plate at a density of about 1-2×10^4 cells/well, and cultured overnight for further use. At first, the medium was replaced with fresh DMEM medium, and then 1 mg/mL UCN, UCP, UCN+PEG (containing 10 mg PEG), UCN+RE-1, UCP, UCP+RE-1, UCN+RE-2, UCN+RE-3, UCN+RE-5, UCP+RE-2, UCP+RE-3, or UCP+RE-5 were added, respectively. After culturing for 24 hr, MTT cell viability assay and PI staining were performed to detect the mortality of the cells.

[3] = test system: HeLa-LC3 cells; assay: RE-1 analogues blocking nanophosphor-induced autophagy (LC3 aggregates and vacuoles); assay type: cell-based; conditions: 24 hr; for inhibition of GFP-LC3 dot-like aggregation and cytoplasm vacuolation induced by UCN: 100 μg/mL UCN coated or mixed; for rank of ability after coating UCN to inhibit cell autophagy induced by UCN: 100 μg/mL
Experimental: UCN and UCP coated with RE-1 analogues RE-2, RE-3, or RE-5 were prepared as follows: 50 μg or 10 μg RE-1 analogues RE-2, RE-3, or RE-5 was mixed with 100 μg UCN or UCP, respectively, incubated at 37° C. for 2 hr, centrifuged at 12000 rpm, and then washed with water 3 times to remove the excess and unbound peptides. The resultant precipitate was resuspended in 100 μL water.
HeLa-LC3 cells were inoculated into a 96-well cell culture plate at a density of about 1-2×10^4 cells/well, and cultured overnight for further use. At first, the medium was replaced with fresh DMEM medium, and then 100 μg/mL UCN, UCN+RE-1, UCN+RE-2, UCN+RE-3, or UCN+RE-5 was added. An equal volume of PBS was used as blank. A mixture of 100 μg/mL UCN and 10 mg/mL PEG was used as negative control. A mixture of 100 mM trehalose and 50 μg RE-1 was used as positive control. After culturing for 24 hr, a fluorescence microscope was used to observe, image, and count.
HeLa-LC3 cells were inoculated into a 96-well cell culture plate at a density of about 1-2×10^4 cells/well, and cultured overnight for further use. At first, the medium was replaced with fresh DMEM medium, and then 100 μg/mL UCP, UCP+RE-1, UCP+RE-2, UCP+RE-3, or UCP+RE-5 was added. An equal volume of PBS was used as blank. After culturing for 24 hr, a fluorescence microscope was used to observe, image, and count.
The ability to induce cell autophagy was estimated by determining the numbers of LC3 aggregates and vacuoles.

[4] = test system: LC3 type II in mice liver; assay: Western blotting of LC3 in mice livers after tail vein injection; assay type: in vivo; conditions: UCP+AP-1, tail vein, 24 hr
Experimental: (§3) Western blotting is performed as follows: After an incubation of 24 h, the cells are collected and lysed with lysis buffer (purchased from Beyotime Biotechnology, China). The lysate is boiled in boiling water for 10 min, subjected to 15% SDS-PAGE, and then transferred to nylon membrane (purchased from Amersham Inc.) by a wet transfer. In the Western blotting, Anti-LC3 (Light Chain 3 Protein Antibody, purchased from Novus Inc., Catalog #: NB 100-2220) is used as primary antibody; GAPDH (purchased from Millipore Inc.) is used as internal reference; and Horseradish peroxidase (HRP) conjugated goat anti-rabbit IgG (H+L) (Goat Anti-Rabbit IgG (H+L), HRP Conjugate) (purchased from Promega Inc.) is used as secondary antibody.
(§4) Balb/c mice (purchased from SLAC Laboratory Animal (Shanghai, China), 6 weeks old, and weighed 20 g when used) were bred in a sterile housing, and then 300 μg (dosage: 15 mg/kg) UCN, UCN+PEG (containing 10 mg PEG), UCN+RE-1, UCP, UCP+RE-1, or UCP+AP-1 was injected through tail vein. An equal volume of normal saline was injected as a control. After 24 hr, the livers of the mice were removed and subjected to western blotting assay.

[5] = test system: mice liver; assay: Liver damage in mice livers (HE staining); assay type: in vivo, Balb/c mice; conditions: UCP+RE-1 or UCP+AP-1, tail vein, 24 hr
Experimental: as §4
The mice livers obtained as described in Example 21 were in situ fixed with 2.5% glutaral-dimethyl arsine buffer (pH 7.4) at 4° C. for 1 hr, then fixed with 2% osmium tetroxide at room temperature for 1 hr, and then dehydrated with ethanol gradients. Then, the cell samples were embedded in paraffin. The embedded cell samples were cut into ultrathin slices, which were stained with HE (hematoxylin-eosin), and observed and imaged under fluorescence microscope.

[6] = test system: LC3 II in HeLa cells; assay: Western blotting of LC3 in HeLa cells; assay type: cell-based; conditions: 100 μg/mL UCP+AP-1
Experimental: as §3
HeLa cells were inoculated into a 24-well cell culturing plate at a density of about 3-5×10^4 cells/well, and cultured overnight for further use. At first, the medium was replaced with fresh DMEM medium, and then 100 μg/mL UCN or UCN+RE-1 was added. An equal volume of PBS was used as blank. A mixture of 100 μg/mL UCN and 10 mg/mL PEG was used as negative control. 100 mM trehalose was used as positive control. Then, western blotting assay was performed.
HeLa cells were inoculated into a 24-well cell culturing plate at a density of about 3-5×10^4 cells/well, and cultured overnight for further use. At first, the medium was replaced with fresh DMEM medium, and then 100 μg/mL UCP or UCP+RE-1 was added. An equal volume of PBS was used as blank. A mixture of 100 μg/mL UCP+AP-1 and a mixture of 400 μg/mL TiO2+AP-1 were used as negative control. 400 μg/mL TiO2 was used as positive control. Then, western blotting assay was performed.

[7] = test system: mice liver; assay: Autophagosome formation in mice livers by transmission electron microscope; assay type: in vivo, Balb/c mice; conditions: RE-1 with UCN, PEG with UCN, AP-1 with UCP
Experimental: as §4
The mice livers obtained as described in Example 21 were in situ fixed with 2.5% glutaral-dimethyl arsine buffer (pH 7.4) at 4° C. for 1 hr, then fixed with 2% osmium tetroxide at room temperature for 1 hr, and then dehydrated with ethanol gradients. Then, the cell samples were embedded into epoxy resin (EPON812). The embedded cell samples were cut into ultrathin slices, which were stained with uranyl acetate and lead citrate, and observed and imaged under a transmission electron microscope (JEOL-1230, JEOL, Japan).

[8] = test system: LC3 II in HeLa cells; assay: RE-1-RGD effect on UCN-induced autophagy (western blotting LC3 II); assay type: cell-based; conditions: 100 μg/mL RE-1-RGD-coated UCN
Experimental: as §3
HeLa cells were inoculated into 24-well cell culture plate at a density of about 3-5×10^4 cells/well, and cultured overnight for further use. At first, the medium was replaced with fresh DMEM medium, and then 100 μg/mL UCN, UCN+PEG (containing 10 mg PEG), UCN+RE-1, and UCN+RE-1-RGD were added, respectively. An equal volume of PBS was used as blank. 100 mM trehalose was used as positive control. Then, western blotting assay was performed.

[9] = test system: HeLa-LC3 cells; assay: RE-1-RGD effect on UCN-induced autophagy (LC3 dot-like aggregates and vacuoles); assay type: cell-based; conditions: 100 μg/mL RE-1-RGD-coated UCN, 24 hr
Experimental: UCN coated with RE-1-RGD was prepared as follows: 50 μg RE-1-RGD and 100 μg UCN were mixed, incubated at 37° C. for 2 hr, and then centrifuged at 12000 rpm. The resultant precipitate was washed with water for 3 times to remove the excess and unbound RE-1-RGD peptides. Then, the precipitate was resuspended in 100 μL water for further use.
HeLa-LC3 cells were inoculated into a 96-well cell culture plate at a density of about 1-2×10^4 cells/well, and cultured overnight for further use. At first, the medium was replaced with fresh DMEM medium, and then 100 μg/mL UCN, UCN+RE-1, and UCN+RE-1-RGD were added, respectively. An equal volume of PBS was used as blank. After culturing for 24 hr, LC3 dot-like aggregates and vacuoles in the cells were observed and imaged under a fluorescence microscope.

[10] = test system: HeLa cells; assay: RE-1-RGD effect on cytotoxicity induced by UCN (MTT, PI staining); assay type: cell-based; conditions: 1 mg/mL RE-1-RGD-coated UCN, 24 hr, MTT and PI staining
Experimental: as §1, §2
HeLa cells were inoculated into 96-well cell culturing plate at a density of about 1-2×10^4 cells/well, and cultured overnight for further use. At first, the medium was replaced with fresh DMEM medium, and then 1 mg/mL UCN, UCN+RE-1, and UCN+RE-1-RGD were added, respectively. After culturing for 24 hr, MTT cell viability assay and PI staining were performed to detect the mortality of the cells.

[11] = test system: HeLa cells; assay: Adherence of UCN coated with RE-1 or RE-1-RGD to HeLa cells; assay type: cell-based; conditions: 37° C., 2 hr, versus uncoated
Experimental: HeLa cells were cultured on a coverslip (22 mm×22 mm), which was then placed into a 6-well plate with the cells facing upward or downward, and the coverslip was supported by a sterilized glass cube (2 mm×2 mm×2 mm). Then, 4 mL of DMEM medium containing the rare-earth upconversion nanophosphors coated with RE-1 or RE-1-RGD or without any coating was slowly poured into the 6-well plate, such that the cells were fully immersed in the medium, and the coverslip was just located at the middle of the height of the liquid. The cells were placed into a cell incubator at 37° C. for 2 hr, and then washed with PBS 3 times. The UCNs adhered to the surfaces of the cells were observed under a fluorescence microscope (Olympus IX71, Olympus, Japan) equipped with a 980-nm infrared laser (MDL-980 nm 1 W, Changchun New Industries Optoelectronics Tech. Co., Ltd, China).

## AATARSPWICG [RE-4, RE-1 2C→A]
[1]
  IC50: 270 ± 8.67 µM

## ACAARSPWICG [RE-5, RE-1 3T→A]
[2]
  inhibitory effect of coating on cytotoxicity induced by UCN and UCP: RE-1>RE-3>RE-5
[1]
  IC50: 689 ± 8.38 µM
[3]
  inhibition of GFP-LC3 dot-like aggregation and cytoplasm vacuolation induced by UCN: did not inhibit
  rank of ability after coating UCN to inhibit cell autophagy induced by UCN: RE-1>RE-3>RE-5

## ACNATLPHQCG [AP-1, same terminal amino acids but irrelevant amino acids therebetween, reference compound]
[4]
  inhibition of ability of UCP to induce autophagy in liver: could not inhibit
[5]
  effect of coating on liver damage induced by UCP: showed no such effect
[6]
  inhibition of ability of nanophosphor to induce cell autophagy by AP-1: not for AP-1
[1]
  IC50: > 5000 µM
[7]
  inhibition of autophagosome formation induced by nanophosphors (UCN, UCP) in liver: did not

## ACTAASPWICG [RE-6, RE-1 5R→A]
[1]
  IC50: 78.4 ± 7.07 µM

## ACTARAPWICG [RE-7, RE-1 65→A as printed]
[1]
  IC50: 83.9 ± 6.65 µM

## ACTARSAWICG [RE-8, RE-1 7P→A]
[1]
  IC50: 440 ± 8.48 µM

## ACTARSPAICG [RE-9, RE-1 8W→A]
[1]
  IC50: 86.7 ± 8.07 µM

## ACTARSPWACG [RE-10, RE-1 9I→A]
[1]
  IC50: 71.5 ± 5.1 µM

## ACWPATRISCG [RE-3, order of 7 middle amino acids of RE-1 disrupted]
[2]
  inhibitory effect of coating on cytotoxicity induced by UCN and UCP: RE-1>RE-3>RE-5
[1]
  IC50: 64.3 ± 2.33 µM
[3]
  inhibition of GFP-LC3 dot-like aggregation and cytoplasm vacuolation induced by UCN: exhibited an inhibitory effect
  rank of ability after coating UCN to inhibit cell autophagy induced by UCN: RE-1>RE-3>RE-5
[3]; 100 μg/mL UCN coated
  reduction of GFP-LC3 dot-like aggregation induced by UCN: 21%
  reduction of cytoplasm vacuolation induced by UCN: 50%

## CRGDCGGACTARSPWICG [RE-1-RGD, RE-1 and tumor cell-targeting peptide RGD]
[8]
  LC3 II in the cells: significantly increased
[9]
  LC3 dot-like aggregates and vacuoles in cells versus UCN group: significantly increased
[10]
  cell mortality versus group treated with UCN: significantly higher
[11]
  number of coated upconversion nanophosphors adhered to the surface of the cells: significantly higher

## TARSPWI [RE-2, TARSPWI]
[2]
  inhibitory effect of coating on cytotoxicity induced by UCN and UCP: nearly showed no inhibitory effect
[1]
  IC50: 1307 ± 6.5 µM
[3]
  inhibition of GFP-LC3 dot-like aggregation and cytoplasm vacuolation induced by UCN: did not inhibit
  rank of ability after coating UCN to inhibit cell autophagy induced by UCN: substantially no inhibitory effect
